Measurements published in patent publication US10428044B2, “3-amino-1,5,6,7-tetrahydro-4H-indol-4-ones” (Bayer Pharma Aktiengesellschaft, priority 2014, dated 2019).
pIC50: −log10 of the molar value.

Target: (recombinant) catalytic domain of human Bub1 (amino acids 704-1085) (Homo sapiens (Human), UniProt O43683)
Experiment: Bub1 kinase assay (TR-FRET)
Assay type: biochemical
Conditions: ATP 10 μM final, peptide substrate 1 μM final, 60 min at 22° C., read-out: Biological Assay: Bub1 kinase assay median IC50
Method in brief: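 Readout was TR-FRET between a Eu-labeled antibody complex recognizing phosphoserine and streptavidin-XL665 on the biotinylated peptide, after EDTA stop and 1 h at 22° C. The kinase reaction ran for 60 min at 22° C. Values are means or medians of repeat tests, from 4-parameter fits normalized to enzyme-free and inhibitor-free controls.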

Chain of (recombinant) catalytic domain of human Bub1 (amino acids 704-1085) (O43683 704-1085): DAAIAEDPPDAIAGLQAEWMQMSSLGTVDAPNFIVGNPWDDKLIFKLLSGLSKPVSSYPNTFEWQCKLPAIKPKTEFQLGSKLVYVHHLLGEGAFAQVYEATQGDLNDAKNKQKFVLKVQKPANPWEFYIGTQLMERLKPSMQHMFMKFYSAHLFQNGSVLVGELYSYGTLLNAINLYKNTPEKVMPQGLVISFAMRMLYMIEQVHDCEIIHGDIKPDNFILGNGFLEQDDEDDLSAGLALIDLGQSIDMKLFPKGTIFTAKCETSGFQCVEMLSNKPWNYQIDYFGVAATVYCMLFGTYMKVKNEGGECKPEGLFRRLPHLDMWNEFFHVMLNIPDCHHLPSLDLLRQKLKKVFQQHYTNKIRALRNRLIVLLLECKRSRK

Compound | pIC50
CC1(C)CC(=O)c2c([nH]c(-c3ccncc3)c2Nc2ccccn2)C1 [Example 25, 6,6-dimethyl-2-(pyridin-4-yl)-3-(pyridin-2-ylamino)-1,5,6,7-tetrahydro-4H-indol-4-one] | 7.58
C[C@H](C(=O)Nc1cc(-c2[nH]c3c(c2Nc2ccccc2)C(=O)CCC3)ccn1)N(C)C(=O)OC(C)(C)C [Example 301, tert-butyl methyl[(2R)-1-oxo-1-({4-[4-oxo-3-(phenylamino)-4,5,6,7-tetrahydro-1H-indol-2-yl]pyridin-2-yl}amino)propan-2-yl]carbamate] | 6.13
CC(C)[C@H]1CC(=O)c2c([nH]c(-c3ccnc(N)c3)c2Nc2ccc(F)cc2)C1 (stereo in doubt) [Example 167, 2-(2-aminopyridin-4-yl)-3-[(4-fluorophenyl)amino]-6-(propan-2-yl)-1,5,6,7-tetrahydro-4H-indol-4-one] | 7.27
O=C1CCCc2[nH]c(-c3ccnc(NC(=S)NCC(F)(F)F)c3)c(Nc3ccccc3)c21 [Example 394, 1-{4-[4-oxo-3-(phenylamino)-4,5,6,7-tetrahydro-1H-indol-2-yl]pyridin-2-yl}-3-(2,2,2-trifluoroethyl)thiourea] | 5.94
C[S+]([O-])c1cnccc1-c1[nH]c2c(c1Nc1ccccc1)C(=O)CC(C)(C)C2 (stereo not shown) [Example 202, {4-[6,6-dimethyl-4-oxo-3-(phenylamino)-4,5,6,7-tetrahydro-1H-indol-2-yl]pyridin-3-yl}(methyl)sulfoniumolate] | 5.70
O=C1CCCc2[nH]c(-c3ccncc3OCC3CC3)c(Nc3ccccc3)c21 [Example 455, 2-[3-(cyclopropylmethoxy)pyridin-4-yl]-3-(phenylamino)-1,5,6,7-tetrahydro-4H-indol-4-one] | 7.61
Cc1nnc(COCC(=O)Nc2cc(-c3[nH]c4c(c3Nc3ccccc3)C(=O)CCC4)ccn2)o1 [Example 353, 2-[(5-methyl-1,3,4-oxadiazol-2-yl)methoxy]-N-{4-[4-oxo-3-(phenylamino)-4,5,6,7-tetrahydro-1H-indol-2-yl]pyridin-2-yl}acetamide] | 7.84
Cc1ccc(CO)c(Nc2c(-c3ccncc3)[nH]c3c2C(=O)CC(C)(C)C3)c1 [Example 481, 3-{[2-(hydroxymethyl)-5-methylphenyl]amino}-6,6-dimethyl-2-(pyridin-4-yl)-1,5,6,7-tetrahydro-4H-indol-4-one] | 7.10
COc1ccc(Cn2cc(C(=O)Nc3cc(-c4[nH]c5c(c4Nc4ccccc4)C(=O)CCC5)ccn3)cn2)cc1 [Example 450, 1-(4-methoxybenzyl)-N-{4-[4-oxo-3-(phenylamino)-4,5,6,7-tetrahydro-1H-indol-2-yl]pyridin-2-yl}-1H-pyrazole-4-carboxamide] | 8.20
Cc1ccc(F)c(Nc2c(-c3ccncc3)[nH]c3c2C(=O)CC(C)(C)C3)c1 [Example 82, 3-[(2-fluoro-5-methylphenyl)amino]-6,6-dimethyl-2-(pyridin-4-yl)-1,5,6,7-tetrahydro-4H-indol-4-one] | 6.29
O=C(Cc1ccc[nH]1)Nc1cc(-c2[nH]c3c(c2Nc2ccccc2)C(=O)CCC3)ccn1 [Example 284, N-{4-[4-oxo-3-(phenylamino)-4,5,6,7-tetrahydro-1H-indol-2-yl]pyridin-2-yl}-2-(1H-pyrrol-2-yl)acetamide] | 7.86
CCn1c2c(c(Nc3ccccc3)c1-c1ccnc(NC(C)=O)c1)C(=O)CC(C)(C)C2 [Example 187, N-{4-[1-ethyl-6,6-dimethyl-4-oxo-3-(phenylamino)-4,5,6,7-tetrahydro-1H-indol-2-yl]pyridin-2-yl}acetamide] | 7.28
Cc1cccc(Nc2c(-c3ccncc3)[nH]c3c2C(=O)CC(C)(C)C3)c1CO [Example 483, 3-{[2-(hydroxymethyl)-3-methylphenyl]amino}-6,6-dimethyl-2-(pyridin-4-yl)-1,5,6,7-tetrahydro-4H-indol-4-one] | 8.02
O=C1CCCc2[nH]c(-c3ccncc3OCC(F)(F)F)c(Nc3ccccc3)c21 [Example 458, 3-(phenylamino)-2-[3-(2,2,2-trifluoroethoxy)pyridin-4-yl]-1,5,6,7-tetrahydro-4H-indol-4-one] | 7.10
O=C1CC2(CC2)Cc2[nH]c(-c3ccnc(F)c3)c(Nc3ccccc3)c21 [Example 207, 2′-(2-fluoropyridin-4-yl)-3′-(phenylamino)-1′,7′-dihydrospiro[cyclopropane-1,6′-indol]-4′(5′H)-one] | 8.14
CC1(C)CC(=O)c2c([nH]c(-c3ccnc(NC(=O)C4CC4(F)F)c3)c2Nc2ccccc2)C1 (stereo not shown) [Example 477, N-{4-[6,6-dimethyl-4-oxo-3-(phenylamino)-4,5,6,7-tetrahydro-1H-indol-2-yl]pyridin-2-yl}-2,2-difluorocyclopropanecarboxamide] | 8.18
CC1(C)CC(=O)c2c([nH]c(-c3ccnc(NCC4CC4)c3)c2Nc2ccccc2)C1 [Example 509, 2-{2-[(cyclopropylmethyl)amino]pyridin-4-yl}-6,6-dimethyl-3-(phenylamino)-1,5,6,7-tetrahydro-4H-indol-4-one] | 6.66

More lines, now with the values ahead:

pIC50 | Compound
7.30 | O=C1CCCc2[nH]c(-c3ccncc3)c(Nc3ccc(F)c(F)c3)c21 [Example 134, 3-[(3,4-difluorophenyl)amino]-2-(pyridin-4-yl)-1,5,6,7-tetrahydro-4H-indol-4-one]
7.42 | CC(C)(C)OC(=O)N1CC(C(=O)Nc2cc(-c3[nH]c4c(c3Nc3ccccc3)C(=O)CCC4)ccn2)C1 [Example 295, tert-butyl 3-({4-[4-oxo-3-(phenylamino)-4,5,6,7-tetrahydro-1H-indol-2-yl]pyridin-2-yl}carbamoyl)azetidine-1-carboxylate]
7.07 | CC(C)(C#N)C(=O)Nc1cc(-c2[nH]c3c(c2Nc2ccccc2)C(=O)CCC3)ccn1 [Example 245, 2-cyano-2-methyl-N-{4-[4-oxo-3-(phenylamino)-4,5,6,7-tetrahydro-1H-indol-2-yl]pyridin-2-yl}propanamide]
6.67 | O=C1CCCc2[nH]c(-c3ccnc(NC(=S)NC4CC4)c3)c(Nc3ccccc3)c21 [Example 395, 1-cyclopropyl-3-{4-[4-oxo-3-(phenylamino)-4,5,6,7-tetrahydro-1H-indol-2-yl]pyridin-2-yl}thiourea]
6.59 | CC(C)(CO)C(=O)Nc1cc(-c2[nH]c3c(c2Nc2ccccc2)C(=O)CCC3)ccn1 [Example 243, 3-hydroxy-2,2-dimethyl-N-{4-[4-oxo-3-(phenylamino)-4,5,6,7-tetrahydro-1H-indol-2-yl]pyridin-2-yl}propanamide]
7.49 | O=C1CCCc2[nH]c(-c3ccnc(NC(=O)C4CC4C(F)(F)F)c3)c(Nc3ccccc3)c21 (racemic) [Example 262, N-{4-[4-oxo-3-(phenylamino)-4,5,6,7-tetrahydro-1H-indol-2-yl]pyridin-2-yl}-2-(trifluoromethyl)cyclopropanecarboxamide]
7.07 | O=C1CCCc2[nH]c(-c3ccnc(N(C(=O)C4CC4)C(=O)C4CC4)c3)c(Nc3cccc(F)c3)c21 [Example 162, N-(cyclopropylcarbonyl)-N-(4-{3-[(3-fluorophenyl)amino]-4-oxo-4,5,6,7-tetrahydro-1H-indol-2-yl}pyridin-2-yl)cyclopropanecarboxamide]
7.38 | O=C1CCCc2[nH]c(-c3ccnc(NC(=O)C4(F)CC4)c3)c(Nc3ccccc3)c21 [Example 261, 1-fluoro-N-{4-[4-oxo-3-(phenylamino)-4,5,6,7-tetrahydro-1H-indol-2-yl]pyridin-2-yl}cyclopropanecarboxamide]
